Tests used:
[1] = system: New Zealand White rabbits; assay: Heart rate in anaesthetised rabbits, topical formulations versus IV bethanechol; type: in vivo, rabbit; settings: range of doses
From the text: More specifically, adult male New Zealand White rabbits, of approximate body weight 2.0 to 3 kg, were allocated in groups of three to be treated with formulations of bethanechol given in Table 1, designated 2, 6, 9 and 14C, along with each of their matching placebos. Animals were anaesthetised with urethane, administered IP, and heart rate was monitored via ECG leads. They were placed in the prone position after being anaesthetised (this inhibits the drug from entering the GI tract). Salivation was measured by inserting pre-weighed cotton wool balls into the oral cavity, removing after five or ten minutes and weighing. The difference in weight provided an estimate of salivary flow.
At the end of the experiment, one animal from each group was given bethanechol intravenously at a range of doses, in order to produce a dose-response curve for heart rate. This was compared to the effect of the active formulations, when given topically, on heart rate.

[2] = system: rabbits; assay: Blood pressure and heart rate in anaesthetised rabbits (separate experiment); type: in vivo, rabbit; settings: intravenous, dose-related at 30, 100 and 300 μg/kg
From the text: In a further, separate experiment, formulation 14C and its matching placebo were given to 3 anaesthetised rabbits in which blood pressure, via an indwelling cannula in the carotid artery, was monitored, along with heart rate.

[3] = system: healthy volunteers; assay: Phase 1 study, formulation applied topically to the oral mucosa; type: in vivo, human; settings: oral and oromucosal
Protocol: In a Phase 1 study involving four healthy volunteers, Formulation 14C applied topically to the oral mucosa at doses up to 20 mg, kept in situ for two minutes.
This local absorption is likely to deliver enough bethanechol to the minor salivary glands, numbering in the hundreds to thousands and located immediately below the oral mucosa, to stimulate them to produce mucin-rich saliva which is disproportionately important for ensuring a comfortable month feel. When added to the salivary stimulation achieved by oral ingestion of bethanechol, it may reasonably be concluded that the formulation can produce better relief from xerostomia, with fewer side-effects, than purely systemic dosing of bethanechol.

[4] = cited from earlier work
[5] = cited from earlier work; remark: listed apart in the source
[6] = system: patients with xerostomia; settings: administered orally, small number of clinical studies; cited from earlier work

Question: Which “Effect on heart rate” value [1] does the source give for `CC(C[N+](C)(C)C)OC(N)=O` (centres unmarked) [bethanechol chloride, Bethanechol chloride] here?
Answer: marked and dose-dependent bradycardia

Question: What about the “Effect on blood pressure” value [2] of the same molecule?
Answer: reduced

Question: What about the “Effect on heart rate” value [2] of the same molecule?
Answer: reduced

Question: What about the “Pharmacokinetics (linearity)” value [3] of the same molecule?
Answer: linear

Question: What about the aqueous solubility [4] of the same molecule?
Answer: high

Question: And the “Penetration into the CNS” value ([5]; at therapeutic doses)?
Answer: does not significantly penetrate into the CNS

Question: What about the “Absorption from the GI tract” value ([5]; in vivo) of the same molecule?
Answer: only poorly absorbed

Question: What about the Salivary flow [6] of the same molecule?
Answer: increase salivary flow

— patent US9492546B2, “Use of bethanechol for treatment of Xerostomia” (Acacia Pharma Limited, priority 2011, dated 2016)
